How the values were obtained:
Format in all cases: biochemical
Human KLK1 = Human KLK1 (Homo sapiens (Human), UniProt P06870); assay: Determination of the IC50 for KLK1 (fluorogenic substrate H-DVal-Leu-Arg-AFC); settings: 37° C.
Description: Determination of the IC50 for KLK1
(§1) Human KLK1 (Callbiochem) was incubated at 37° C. with the fluorogenic substrate H-DVal-Leu-Arg-AFC and various concentrations of the test compound. Residual enzyme activity (initial rate of reaction) was determined by measuring the change in […] at 410 nm and the IC50 value for the test compound was determined.

Factor XIIa = Factor XIIa (Homo sapiens (Human), UniProt P00748); assay: Determination of enzyme selectivity, Factor XIIa; settings: substrate at Km concentration
Sequence of Factor XIIa (P00748 373-615): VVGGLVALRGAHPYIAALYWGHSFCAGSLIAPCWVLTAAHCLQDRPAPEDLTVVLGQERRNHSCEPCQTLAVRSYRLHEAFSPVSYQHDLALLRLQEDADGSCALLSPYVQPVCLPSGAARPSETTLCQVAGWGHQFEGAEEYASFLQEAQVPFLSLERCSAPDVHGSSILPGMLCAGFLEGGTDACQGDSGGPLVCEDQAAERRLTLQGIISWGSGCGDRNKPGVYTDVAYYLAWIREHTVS
Description: Determination of Enzyme Selectivity
Human serine protease enzymes plasmin, thrombin, trypsin, Factor Xa and Factor XIIa were assayed for enzymatic activity using an appropriate fluorogenic substrate. Protease activity was measured by monitoring the accumulation of liberated fluorescence from the substrate over 5 minutes. The linear rate of fluorescence increase per minute was expressed as percentage (%) activity. The Km for the cleavage of each substrate was determined by standard transformation of the Michaelis-Menten equation.

Human plasma kallikrein = Human plasma kallikrein (Homo sapiens (Human), UniProt P03952); assay: Determination of the IC50 for plasma kallikrein (fluorogenic substrate H-DPro-Phe-Arg-AFC); settings: 37° C., read-out: IC50 (human PKaI)
Sequence of Human plasma kallikrein (P03952 391-638): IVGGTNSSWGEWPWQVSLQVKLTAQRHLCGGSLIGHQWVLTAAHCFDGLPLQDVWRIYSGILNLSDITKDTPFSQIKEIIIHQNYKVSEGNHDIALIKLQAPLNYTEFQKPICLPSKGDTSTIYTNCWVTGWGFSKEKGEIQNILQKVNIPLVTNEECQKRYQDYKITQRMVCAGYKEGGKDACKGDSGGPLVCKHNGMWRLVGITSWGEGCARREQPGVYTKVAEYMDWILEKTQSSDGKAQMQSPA
Sequence of Human plasma kallikrein (P03952 20-390 partner): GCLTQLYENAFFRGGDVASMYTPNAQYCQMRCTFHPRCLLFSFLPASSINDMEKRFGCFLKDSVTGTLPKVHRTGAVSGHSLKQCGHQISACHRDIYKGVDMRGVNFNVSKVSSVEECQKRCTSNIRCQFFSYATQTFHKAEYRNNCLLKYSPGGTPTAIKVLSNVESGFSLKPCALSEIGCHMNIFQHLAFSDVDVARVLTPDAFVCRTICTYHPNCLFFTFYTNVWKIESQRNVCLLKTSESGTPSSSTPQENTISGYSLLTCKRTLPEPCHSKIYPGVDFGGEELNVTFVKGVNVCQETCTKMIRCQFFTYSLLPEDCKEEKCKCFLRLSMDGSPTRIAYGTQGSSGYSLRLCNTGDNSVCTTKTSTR
Description: Determination of the IC50 for Plasma Kallikrein
as §1, with “plasma kallikrein (Protogen)” for “KLK1 (Callbiochem)”, “H-DPro-Phe-Arg-AFC” for “H-DVal-Leu-Arg-AFC”

Sequence of Human KLK1 (P06870 25-262): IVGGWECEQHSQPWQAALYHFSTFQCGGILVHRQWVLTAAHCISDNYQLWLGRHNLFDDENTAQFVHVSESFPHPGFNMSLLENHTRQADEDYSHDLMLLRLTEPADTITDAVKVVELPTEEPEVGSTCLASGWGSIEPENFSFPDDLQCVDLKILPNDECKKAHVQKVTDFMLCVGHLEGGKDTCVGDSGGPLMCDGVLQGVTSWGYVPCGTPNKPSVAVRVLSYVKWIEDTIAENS

Row | Molecule | IC50 (Human KLK1) | IC50 (Factor XIIa) | IC50 (Human plasma kallikrein)
1 | 1-[4-(4-Methyl-pyrazol-1-ylmethyl)-benzyl]-3-trifluoromethyl-1H-pyrazole-4-carboxylic acid (4,6-dimethyl-1H-pyrrolo[2,3-b]pyridin-5-ylmethyl)-amide [Example 119] | > 4 µM | > 4000 nM | 0.0866 µM
2 | Cc1cc(C(=O)NCc2ccc3ccnc(N)c3c2)c(C)n1Cc1csc(-c2ccccc2)n1 [Example 2, 2,5-Dimethyl-1-(2-phenyl-thiazol-4-ylmethyl)-1H-pyrrole-3-carboxylic acid (1-amino-isoquinolin-7-ylmethyl)-amide] | > 10 µM | > 10000 nM | 2.11 µM
3 | CCn1c(C(=O)NCc2ccc3c(N)nccc3c2)cc(C)c1Cc1ccc(Cn2ccccc2=O)cc1 [Example 6, 1-Ethyl-4-methyl-5-[4-(2-oxo-2H-pyridin-1-ylmethyl)-benzyl]-1H-pyrrole-2-carboxylic acid (1-amino-isoquinolin-6-ylmethyl)-amide] | 9.46 µM | > 10000 nM | 9.46 µM
4 | Cc1cnn(Cc2ccc(Cn3cc(C(=O)NCc4ccc5c(N)nccc5c4)c(C(C)C)n3)cc2)c1 [Example 13, 3-Isopropyl-1-[4-(4-methyl-pyrazol-1-ylmethyl)-benzyl]-1H-pyrazole-4-carboxylic acid (1-amino-isoquinolin-6-ylmethyl)-amide] | 5.16 µM | > 10000 nM | 0.00214 µM
5 | Cc1cnn(Cc2ccc(Cn3cc(C(=O)NCc4ccc5c(N)nccc5c4)c(C4CCC4)n3)cc2)c1 [Example 14, 3-Cyclobutyl-1-[4-(4-methyl-pyrazol-1-ylmethyl)-benzyl]-1H-pyrazole-4-carboxylic acid (1-amino-isoquinolin-6-ylmethyl)-amide] | 5.97 µM | > 10000 nM | 0.00462 µM
6 | Cc1cnn(Cc2ccc(Cc3nc(C)c(C(=O)NCc4ccc5c(N)nccc5c4)s3)cc2)c1 [Example 18, 4-Methyl-2-[4-(4-methyl-pyrazol-1-ylmethyl)-benzyl]-thiazole-5-carboxylic acid (1-amino-isoquinolin-6-ylmethyl)-amide] | > 10 µM | > 10000 nM | 0.032 µM
7 | Cc1cnn(Cc2ccc(Cn3cc(C(=O)NCc4cc5cc[nH]c5nc4C)cn3)cc2)c1 [Example 22, 1-[4-(4-Methyl-pyrazol-1-ylmethyl)-benzyl]-1H-pyrazole-4-carboxylic acid (6-methyl-1H-pyrrolo[2,3-b]pyridin-5-ylmethyl)-amide] | > 10 µM | > 10000 nM | 0.132 µM
8 | CCn1c(C(=O)NCc2ccc3c(N)nccc3c2)cc(C)c1Cc1ccc(Cn2cc(C)cn2)cc1 [Example 28, 1-Ethyl-4-methyl-5-[4-(4-methyl-pyrazol-1-ylmethyl)-benzyl]-1H-pyrrole-2-carboxylic acid (1-amino-isoquinolin-6-ylmethyl)-amide] | > 10 µM | > 10000 nM | 0.0637 µM
9 | CCn1c(C(=O)NCc2ccc3c(N)nccc3c2)cc(C)c1Cc1ccc(N2CCCC2)nc1 [Example 30, 1-Ethyl-4-methyl-5-(6-pyrrolidin-1-yl-pyridin-3-ylmethyl)-1H-pyrrole-2-carboxylic acid (1-amino-isoquinolin-6-ylmethyl)-amide] | 5.75 µM | > 10000 nM | 1.47 µM
10 | Cc1cnn(Cc2ccc(Cn3cc(C(=O)NCc4ccc5c(N)nccc5c4)nn3)cc2)c1 [Example 33, 1-[4-(4-Methyl-pyrazol-1-ylmethyl)-benzyl]-1H-[1,2,3]triazole-4-carboxylic acid (1-amino-isoquinolin-6-ylmethyl)-amide] | > 10 µM | > 10000 nM | 0.0028 µM
11 | Cc1nc(C)c(N(C)Cc2ccc(Cn3cc(C(=O)NCc4ccc5c(N)nccc5c4)cn3)cc2)s1 [Example 46, 1-(4-{[(2,4-Dimethyl-thiazol-5-yl)-methyl-amino]-methyl}-benzyl)-1H-pyrazole-4-carboxylic acid (1-amino-isoquinolin-6-ylmethyl)-amide] |  | > 40000 nM | 
12 | Nc1nn(Cc2ccc(N3CCCC3)nc2)cc1C(=O)NCc1ccc2c(N)nccc2c1 [Example 99, 3-Amino-1-(6-pyrrolidin-1-yl-pyridin-3-ylmethyl)-1H-pyrazole-4-carboxylic acid (1-amino-isoquinolin-6-ylmethyl)-amide] | 3.46 µM |  | 0.00415 µM
13 | Nc1nn(Cc2ccc(Cn3ccccc3=O)cc2)cc1C(=O)NCc1cccc2[nH]ncc12 [Example 113, 3-Amino-1-[4-(2-oxo-2H-pyridin-1-ylmethyl)-benzyl]-1H-pyrazole-4-carboxylic acid (1H-indazol-4-ylmethyl)-amide] | 5.95 µM |  | 0.0133 µM
14 | O=C(NCc1cnc2[nH]ccc2c1)c1cn(Cc2ccc(N3CCCC3)nc2)nc1C(F)(F)F [Example 114, 1-(6-Pyrrolidin-1-yl-pyridin-3-ylmethyl)-3-trifluoromethyl-1H-pyrazole-4-carboxylic acid (1H-pyrrolo[2,3-b]pyridin-5-ylmethyl)-amide] | 1.21 µM |  | 0.304 µM
15 | Cc1cnn(Cc2ccc(Cn3cc(C(=O)NCc4cnc5[nH]ccc5c4)c(C(F)(F)F)n3)cc2)c1 [Example 121, 1-[4-(4-Methyl-pyrazol-1-ylmethyl)-benzyl]-3-trifluoromethyl-1H-pyrazole-4-carboxylic acid (1H-pyrrolo[2,3-b]pyridin-5-ylmethyl)-amide] | > 10 µM |  | 0.062 µM
16 | Cc1cnn(Cc2ccc(Cn3cc(C(=O)NCc4c(C)nc5[nH]ccc5c4C)c(C4CC4)n3)cc2)c1 [Example 122, 3-Cyclopropyl-1-[4-(4-methyl-pyrazol-1-ylmethyl)-benzyl]-1H-pyrazole-4-carboxylic acid (4,6-dimethyl-1H-pyrrolo[2,3-b]pyridin-5-ylmethyl)-amide] | > 10 µM |  | 0.101 µM
17 | Cc1cnn(Cc2ccc(Cn3cc(C(=O)NCc4ccnc5[nH]ccc45)c(C(F)(F)F)n3)cc2)c1 [Example 125, 1-[4-(4-Methyl-pyrazol-1-ylmethyl)-benzyl]-3-trifluoromethyl-1H-pyrazole-4-carboxylic acid (1H-pyrrolo[2,3-b]pyridin-4-ylmethyl)-amide] | > 10 µM |  | 4.01 µM
18 | Cc1cnn(Cc2ccc(Cn3cc(C(=O)NCc4n[nH]c5ccc(Cl)cc45)c(C(F)(F)F)n3)cc2)c1 [Example 127, 1-[4-(4-Methyl-pyrazol-1-ylmethyl)-benzyl]-3-trifluoromethyl-1H-pyrazole-4-carboxylic acid (5-chloro-1H-indazol-3-ylmethyl)-amide] | > 10 µM |  | 0.537 µM
19 | O=C(NCc1n[nH]c2ccc(Cl)cc12)c1cn(Cc2ccc(N3CCCC3)nc2)nc1C(F)(F)F [Example 128, 1-(6-Pyrrolidin-1-yl-pyridin-3-ylmethyl)-3-trifluoromethyl-1H-pyrazole-4-carboxylic acid (5-chloro-1H-indazol-3-ylmethyl)-amide] | > 10 µM |  | 0.0249 µM
20 | O=C(NCc1n[nH]c2ccc(Cl)cc12)c1cn(Cc2ccc(Cn3ccccc3=O)cc2)nc1C(F)(F)F [Example 129, 1-[4-(2-Oxo-2H-pyridin-1-ylmethyl)-benzyl]-3-trifluoromethyl-1H-pyrazole-4-carboxylic acid (5-chloro-1H-indazol-3-ylmethyl)-amide] | > 10 µM |  | 0.00214 µM

— patent US9533987B2, “Heterocyclic derivates” (KALVISTA PHARMACEUTICALS LIMITED, priority 2013, dated 2017)
